pIC50: −log10 of the molar value. Where a name gives a salt, the structure may show the parent alone.
Target: recombinant human HPK1 (Homo sapiens (Human), UniProt Q92918)
Assay: HPK1 kinase assay (Promega ADP-Glo kinase assay)
Type: biochemical
Conditions: In vitro activity against HPK1, 5 ng HPK1, MBP substrate, ATP 25 μM, 30° C. 40 minutes
Procedure, shortened: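 ADP-Glo luminescence assay with 5 ng recombinant human HPK1, MBP substrate and ATP (added as 25 µM solution) in Tris pH 7.5, 20 mM MgCl2, BSA, DTT, 0.5% DMSO. Reaction ran 40 min at 30 °C. IC50 was fitted from percent inhibition over an inhibitor concentration range.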

Sequence of recombinant human HPK1 (Q92918 whole entry): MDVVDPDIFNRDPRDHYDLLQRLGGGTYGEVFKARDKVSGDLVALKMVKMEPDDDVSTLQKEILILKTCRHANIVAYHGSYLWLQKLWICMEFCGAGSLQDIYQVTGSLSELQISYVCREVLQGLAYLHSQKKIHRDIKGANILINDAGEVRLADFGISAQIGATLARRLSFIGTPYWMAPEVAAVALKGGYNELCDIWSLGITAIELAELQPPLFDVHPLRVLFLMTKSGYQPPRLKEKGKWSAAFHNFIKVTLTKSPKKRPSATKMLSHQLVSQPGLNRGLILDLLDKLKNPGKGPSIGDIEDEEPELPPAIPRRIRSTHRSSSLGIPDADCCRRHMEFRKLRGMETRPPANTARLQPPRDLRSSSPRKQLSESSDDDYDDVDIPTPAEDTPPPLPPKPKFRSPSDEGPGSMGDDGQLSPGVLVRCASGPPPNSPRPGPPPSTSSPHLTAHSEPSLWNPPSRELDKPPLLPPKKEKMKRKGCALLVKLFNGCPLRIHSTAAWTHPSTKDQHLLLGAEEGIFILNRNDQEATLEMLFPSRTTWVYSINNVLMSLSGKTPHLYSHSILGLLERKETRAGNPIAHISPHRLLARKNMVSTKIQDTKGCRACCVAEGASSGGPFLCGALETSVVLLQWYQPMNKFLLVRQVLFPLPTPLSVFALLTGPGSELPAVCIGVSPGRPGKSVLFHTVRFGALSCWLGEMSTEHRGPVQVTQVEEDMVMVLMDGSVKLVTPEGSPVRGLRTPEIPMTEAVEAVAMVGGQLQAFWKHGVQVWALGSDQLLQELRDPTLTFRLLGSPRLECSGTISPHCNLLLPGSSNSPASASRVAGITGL

Structure (SMILES)	pIC50
CC(C)Nc1c(F)c(Cl)c(-c2cn3cc(NC(=O)Cc4cocn4)nc3cn2)c2cn[nH]c12 [Example 144, N-(6-(5-chloro-6-fluoro-7-(isopropylamino)-1H-indazol-4-yl)imidazo[1,2-a]pyrazin-2-yl)-2-(oxazol-4-yl)acetamide]	> 7.00
CC(=O)Nc1cn2cc(-c3c(Cl)c(F)c(OC4CN(C(C)=O)C4)c4[nH]ncc34)ncc2n1 [Example 145, N-(6-(7-((1-acetylazetidin-3-yl)oxy)-5-chloro-6-fluoro-1H-indazol-4-yl)imidazo[1,2-a]pyrazin-2-yl)acetamide]	6.00 to 6.30
C[C@H](NC(=O)C(F)(F)F)c1c(F)c(Cl)c(-c2cn3cc(NC(=O)[C@@H]4C[C@@H]4F)nc3cn2)c2cn[nH]c12 [Example 146, (1S,2S)-N-(6-(5-chloro-6-fluoro-7-((S)-1-(2,2,2-trifluoroacetamido)ethyl)-1H-indazol-4-yl)imidazo[1,2-a]pyrazin-2-yl)-2-fluorocyclopropane-1-carboxamide]	> 7.00
CC(=O)Nc1cn2cc(-c3c(Cl)c(F)c(OC4CNC4)c4[nH]ncc34)ncc2n1 [Example 147, N-(6-(7-(azetidin-3-yloxy)-5-chloro-6-fluoro-1H-indazol-4-yl)imidazo[1,2-a]pyrazin-2-yl)acetamide formate]	6.00 to 6.30
CC(=O)Nc1cn2cc(-c3c(Cl)c(F)c(OC4CN(C(=O)CO)C4)c4[nH]ncc34)ncc2n1 [Example 148, N-(6-(5-chloro-6-fluoro-7-((1-(2-hydroxyacetyl)azetidin-3-yl)oxy)-1H-indazol-4-yl)imidazo[1,2-a]pyrazin-2-yl)acetamide]	6.00 to 6.30
CCC(=O)N1CC(Oc2c(F)c(Cl)c(-c3cn4cc(NC(C)=O)nc4cn3)c3cn[nH]c23)C1 [Example 149, N-(6-(5-chloro-6-fluoro-7-((1-propionylazetidin-3-yl)oxy)-1H-indazol-4-yl)imidazo[1,2-a]pyrazin-2-yl)acetamide]	6.00 to 6.30
CC(=O)Nc1cn2cc(-c3c(Cl)c(F)c(CN4CC(O)C4)c4[nH]ncc34)ncc2n1 [Example 150, N-(6-(5-chloro-6-fluoro-7-((3-hydroxyazetidin-1-yl)methyl)-1H-indazol-4-yl)imidazo[1,2-a]pyrazin-2-yl)acetamide]	6.00 to 6.30
CC(=O)Nc1cn2cc(-c3c(Cl)c(F)c(CN4CCC(O)C4)c4[nH]ncc34)ncc2n1 (stereo not drawn) [Example 151, N-(6-(5-chloro-6-fluoro-7-((3-hydroxypyrrolidin-1-yl)methyl)-1H-indazol-4-yl)imidazo[1,2-a]pyrazin-2-yl)acetamide]	6.00 to 6.30
CC(=O)Nc1cn2cc(-c3c(Cl)c(F)c(C(O)C4CC4)c4[nH]ncc34)ncc2n1 (stereo not drawn) [Example 152, N-(6-(5-chloro-7-(cyclopropyl(hydroxy)methyl)-6-fluoro-1H-indazol-4-yl)imidazo[1,2-a]pyrazin-2-yl)acetamide]	> 7.00
CC(=O)Nc1cn2cc(-c3c(C(F)F)c(F)c(NC(C)C)c4[nH]ncc34)ncc2n1 [Example 153, N-(6-(5-(difluoromethyl)-6-fluoro-7-(isopropylamino)-1H-indazol-4-yl)imidazo[1,2-a]pyrazin-2-yl)acetamide]	> 7.00
CC(C)Nc1c(F)c(C(F)F)c(-c2cn3cc(NC(=O)[C@@H]4C[C@@H]4C#N)nc3cn2)c2cn[nH]c12 [Example 154, (1R,2S)-2-cyano-N-(6-(5-(difluoromethyl)-6-fluoro-7-(isopropylamino)-1H-indazol-4-yl)imidazo[1,2-a]pyrazin-2-yl)cyclopropane-1-carboxamide]	> 7.00
CCC(=O)Nc1cn2cc(-c3c(C(F)F)c(F)c(NC(C)C)c4[nH]ncc34)ncc2n1 [Example 155, N-(6-(5-(difluoromethyl)-6-fluoro-7-(isopropylamino)-1H-indazol-4-yl)imidazo[1,2-a]pyrazin-2-yl)propionamide]	> 7.00
CC(C)Nc1c(F)c(C(F)F)c(-c2cn3cc(NC(=O)C4CC4)nc3cn2)c2cn[nH]c12 [Example 156, N-(6-(5-(difluoromethyl)-6-fluoro-7-(isopropylamino)-1H-indazol-4-yl)imidazo[1,2-a]pyrazin-2-yl)cyclopropanecarboxamide]	> 7.00
CC(=O)Nc1cn2cc(-c3c(Cl)c(F)c(CN4CC(C)(O)C4)c4[nH]ncc34)ncc2n1 [Example 157, N-(6-(5-chloro-6-fluoro-7-((3-hydroxy-3-methylazetidin-1-yl)methyl)-1H-indazol-4-yl)imidazo[1,2-a]pyrazin-2-yl)acetamide]	6.00 to 6.30
COc1c(F)c(NC(C)C)c2[nH]ncc2c1-c1cn2cc(NC(C)=O)nc2cn1 [Example 158, N-(6-(6-fluoro-7-(isopropylamino)-5-methoxy-1H-indazol-4-yl)imidazo[1,2-a]pyrazin-2-yl)acetamide]	> 7.00
CC(=O)Nc1cn2cc(-c3c(Cl)c(F)c(CN4CCC(C)(O)C4)c4[nH]ncc34)ncc2n1 (stereo not drawn) [Example 159, N-(6-(5-chloro-6-fluoro-7-((3-hydroxy-3-methylpyrrolidin-1-yl)methyl)-1H-indazol-4-yl)imidazo[1,2-a]pyrazin-2-yl)acetamide]	6.00 to 6.30
COc1c(F)c(NC(C)C)c2[nH]ncc2c1-c1cn2cc(NC(=O)C3CC3)nc2cn1 [Example 160, N-(6-(6-fluoro-7-(isopropylamino)-5-methoxy-1H-indazol-4-yl)imidazo[1,2-a]pyrazin-2-yl)cyclopropanecarboxamide]	> 7.00
CC(=O)Nc1cn2cc(-c3c(Cl)c(F)c(C(C)N4CC(O)C4)c4[nH]ncc34)ncc2n1 (stereo not drawn) [Example 161, N-(6-(5-chloro-6-fluoro-7-(1-(3-hydroxyazetidin-1-yl)ethyl)-1H-indazol-4-yl)imidazo[1,2-a]pyrazin-2-yl)acetamide]	6.00 to 6.30
CCC(=O)Nc1cn2cc(-c3c(OC)c(F)c(NC(C)C)c4[nH]ncc34)ncc2n1 [Example 162, N-(6-(6-fluoro-7-(isopropylamino)-5-methoxy-1H-indazol-4-yl)imidazo[1,2-a]pyrazin-2-yl)propionamide]	> 7.00
CC(=O)Nc1cn2cc(-c3c(Cl)c(F)c(C(C)N4CCC(O)C4)c4[nH]ncc34)ncc2n1 (stereo not drawn) [Example 163, N-(6-(5-chloro-6-fluoro-7-(1-(3-hydroxypyrrolidin-1-yl)ethyl)-1H-indazol-4-yl)imidazo[1,2-a]pyrazin-2-yl)acetamide]	6.00 to 6.30
COc1c(F)c(NC(C)C)c2[nH]ncc2c1-c1cn2cc(NC(=O)[C@@H]3C[C@@H]3C#N)nc2cn1 [Example 164, (1R,2S)-2-cyano-N-(6-(6-fluoro-7-(isopropylamino)-5-methoxy-1H-indazol-4-yl)imidazo[1,2-a]pyrazin-2-yl)cyclopropane-1-carboxamide]	> 7.00
